# Test results as given in patent US20240101576A1, “HETEROCYCLIC INHIBITORS OF EGFR AND/OR HER2, FOR USE IN THE TREATMENT OF CANCER” (Scorpion Therapeutics, Inc., priority 2020, published 2024).
# Legend:
# Type in all cases: cell-based
# [1] = target: T1, EGFR exon 20 ASV Ins V769_D770 (Ba/F3 cells) (Homo sapiens, UniProt P00533, INS769ASV); assay: Inhibitor activity on EGFR-dependent cell growth (CellTiter-Glo, 72 h), Ba/F3 EGFR exon 20 ASV Ins; details: read-out: BaF3 ASV IC50
# T1 construct: expressed in transfected cells; host or cells: Ba/F3 (murine pro-B cells), retroviral transduction, puromycin selection, IL3-independent pool
# Text: (§1) Example A. Inhibitor Activity on EGFR-Dependent Cell Growth
# (§2) Cell lines are generated by transducing Ba/F3 cells with retroviruses containing vectors with EGFR WT, EGFR L858R, EGFR exon 19del, EGFR L858R/C797S, EGFR exon 20 NPG Ins D770_N771, EGFR exon 20 ASV Ins V769_D770, EGFR exon 20 SVD Ins D770_N771, or EGFR exon 20 FQEA Ins A763_V764 genes and a puromycin selection marker. Transduced cells are selected with puromycin for 7 days and are then be transferred into culture media without Interleukin 3 (IL3). EGFR WT cells are maintained with supplemental EGF. Surviving cells are confirmed to express EGFR by Western blot and maintained as a pool. The IC50 date were included in Table 6 and Table 7.
# (§3) 1.1 Cells are harvested from flask into cell culture medium and the cell number counted.
# (§4) 1.2 Cells are diluted with culture medium to the desired density and 40 μL of cell suspension is added into each well of 384-well cell culture plate and the seeding density is 800 (FQEA, exon 19del), 600 (WT, NPG, L858R/C797S), or 400 (ASV, SVD, L858R) cells/well.
# (§5) 2 Compound Preparation and Treatment
# (§6) 2.1 Test compounds are dissolved to 10 mM in a DMSO stock solution. 45 μL of stock solution is transferred to a 384 polypropylene plate (pp-plate). Perform 3-fold, 10-point dilution via transferring 15 μL compound into 30 μL DMSO using a TECAN (EVO200) liquid handler.
# (§7) 2.2 Spin plates at room temperature at 1,000 RPM for 1 minute.
# (§8) 2.3 Transfer 120 nL of diluted compound from compound source plate into the cell plate.
# (§9) 2.4 After compound treatment for 72 hours, perform CTG detection for compound treatment plates as described in “Detection” section.
# (§10) 3.1 Plates are removed from incubators and equilibrated at room temperature for 15 minutes.
# (§11) 3.2 Thaw the CellTiter Glo reagents and allow to equilibrate to room temperature before the experiment.
# (§12) 3.3 Add 40 μL of CellTiter-Glo reagent into each well (at 1:1 to culture medium). Then place the plates at room temperature for 30 min followed by reading on EnVision.
# (§13) 4.1 Inhibition activity is calculated following the formula below:
# (§14) % Inhibition=100×(LumHC−LumSample)/(LumHC−LumLC) • where HC is obtained from cells treated with 0.1% DMSO only; and LC is obtained from culture medium only.
# (§15) 4.2 2. Calculate the IC50 by fitting the Curve using Xlfit (v5.3.1.3), equation 201.
# (§16) Y=Bottom+(Top−Bottom)/(1+10^((Log IC50−X)*HillSlope))
# [2] = target: T2, EGFR exon 20 FQEA Ins A763_V764 (Ba/F3 cells) (Homo sapiens, UniProt P00533, INS763FQEA); assay: Inhibitor activity on EGFR-dependent cell growth (CellTiter-Glo, 72 h), Ba/F3 EGFR exon 20 FQEA Ins; details: read-out: BaF3 FQEA IC50
# T2 construct: expressed in transfected cells; host or cells: Ba/F3 (murine pro-B cells), retroviral transduction, puromycin selection, IL3-independent pool
# Text: as §1, §2, §3, §4, §5, §6, §7, §8, §9, §10, §11, §12, §13, §14, §15, §16
# [3] = target: T3, EGFR exon 20 SVD Ins D770_N771 (Ba/F3 cells) (Homo sapiens, UniProt P00533, INS770SVD); assay: Inhibitor activity on EGFR-dependent cell growth (CellTiter-Glo, 72 h), Ba/F3 EGFR exon 20 SVD Ins; details: read-out: BaF3 SVD IC50
# T3 construct: expressed in transfected cells; host or cells: Ba/F3 (murine pro-B cells), retroviral transduction, puromycin selection, IL3-independent pool
# Text: as §1, §2, §3, §4, §5, §6, §7, §8, §9, §10, §11, §12, §13, §14, §15, §16
# EGFR WT (Ba/F3 cells) = target: T4, EGFR WT (Ba/F3 cells) (Homo sapiens, UniProt P00533); assay: Inhibitor activity on EGFR-dependent cell growth (CellTiter-Glo, 72 h), Ba/F3 EGFR WT; details: read-out: BaF3 WT IC50
# T4 construct: expressed in transfected cells; host or cells: Ba/F3 (murine pro-B cells), retroviral transduction, puromycin selection, maintained with EGF
# Text: as §1, §2, §3, §4, §5, §6, §7, §8, §9, §10, §11, §12, §13, §14, §15, §16
# T2 sequence (P00533 with tags, fused parts or gaps INS763FQEA): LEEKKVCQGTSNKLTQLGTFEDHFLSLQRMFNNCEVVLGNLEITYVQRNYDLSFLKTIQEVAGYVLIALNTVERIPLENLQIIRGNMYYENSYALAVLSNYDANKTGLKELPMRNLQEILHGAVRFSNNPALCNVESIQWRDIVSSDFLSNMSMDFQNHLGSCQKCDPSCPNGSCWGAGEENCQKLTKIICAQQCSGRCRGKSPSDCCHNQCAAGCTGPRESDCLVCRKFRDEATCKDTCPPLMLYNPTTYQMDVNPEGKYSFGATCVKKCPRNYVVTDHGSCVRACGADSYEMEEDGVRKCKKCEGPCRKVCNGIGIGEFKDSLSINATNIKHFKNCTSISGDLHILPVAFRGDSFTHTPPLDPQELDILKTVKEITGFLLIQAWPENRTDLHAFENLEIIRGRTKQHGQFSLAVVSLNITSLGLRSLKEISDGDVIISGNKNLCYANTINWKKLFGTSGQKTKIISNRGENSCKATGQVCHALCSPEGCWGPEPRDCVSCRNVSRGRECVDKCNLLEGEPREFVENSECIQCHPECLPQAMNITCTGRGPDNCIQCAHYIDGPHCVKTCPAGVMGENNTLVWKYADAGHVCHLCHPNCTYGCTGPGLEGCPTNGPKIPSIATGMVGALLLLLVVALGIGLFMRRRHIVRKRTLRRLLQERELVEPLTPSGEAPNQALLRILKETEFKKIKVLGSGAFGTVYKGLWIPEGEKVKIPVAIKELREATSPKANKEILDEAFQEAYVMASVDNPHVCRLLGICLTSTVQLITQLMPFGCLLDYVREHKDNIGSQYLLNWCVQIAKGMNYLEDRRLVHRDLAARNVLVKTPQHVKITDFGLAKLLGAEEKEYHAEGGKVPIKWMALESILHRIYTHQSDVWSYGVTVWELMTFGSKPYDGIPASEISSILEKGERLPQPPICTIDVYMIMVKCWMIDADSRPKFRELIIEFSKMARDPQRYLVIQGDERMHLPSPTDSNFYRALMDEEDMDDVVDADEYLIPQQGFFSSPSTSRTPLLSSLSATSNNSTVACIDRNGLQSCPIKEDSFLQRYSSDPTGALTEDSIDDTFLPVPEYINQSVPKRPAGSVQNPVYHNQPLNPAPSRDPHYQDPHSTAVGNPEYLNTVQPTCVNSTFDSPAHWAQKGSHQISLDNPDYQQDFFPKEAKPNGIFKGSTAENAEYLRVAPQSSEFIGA
# T4 sequence (P00533 25-1210): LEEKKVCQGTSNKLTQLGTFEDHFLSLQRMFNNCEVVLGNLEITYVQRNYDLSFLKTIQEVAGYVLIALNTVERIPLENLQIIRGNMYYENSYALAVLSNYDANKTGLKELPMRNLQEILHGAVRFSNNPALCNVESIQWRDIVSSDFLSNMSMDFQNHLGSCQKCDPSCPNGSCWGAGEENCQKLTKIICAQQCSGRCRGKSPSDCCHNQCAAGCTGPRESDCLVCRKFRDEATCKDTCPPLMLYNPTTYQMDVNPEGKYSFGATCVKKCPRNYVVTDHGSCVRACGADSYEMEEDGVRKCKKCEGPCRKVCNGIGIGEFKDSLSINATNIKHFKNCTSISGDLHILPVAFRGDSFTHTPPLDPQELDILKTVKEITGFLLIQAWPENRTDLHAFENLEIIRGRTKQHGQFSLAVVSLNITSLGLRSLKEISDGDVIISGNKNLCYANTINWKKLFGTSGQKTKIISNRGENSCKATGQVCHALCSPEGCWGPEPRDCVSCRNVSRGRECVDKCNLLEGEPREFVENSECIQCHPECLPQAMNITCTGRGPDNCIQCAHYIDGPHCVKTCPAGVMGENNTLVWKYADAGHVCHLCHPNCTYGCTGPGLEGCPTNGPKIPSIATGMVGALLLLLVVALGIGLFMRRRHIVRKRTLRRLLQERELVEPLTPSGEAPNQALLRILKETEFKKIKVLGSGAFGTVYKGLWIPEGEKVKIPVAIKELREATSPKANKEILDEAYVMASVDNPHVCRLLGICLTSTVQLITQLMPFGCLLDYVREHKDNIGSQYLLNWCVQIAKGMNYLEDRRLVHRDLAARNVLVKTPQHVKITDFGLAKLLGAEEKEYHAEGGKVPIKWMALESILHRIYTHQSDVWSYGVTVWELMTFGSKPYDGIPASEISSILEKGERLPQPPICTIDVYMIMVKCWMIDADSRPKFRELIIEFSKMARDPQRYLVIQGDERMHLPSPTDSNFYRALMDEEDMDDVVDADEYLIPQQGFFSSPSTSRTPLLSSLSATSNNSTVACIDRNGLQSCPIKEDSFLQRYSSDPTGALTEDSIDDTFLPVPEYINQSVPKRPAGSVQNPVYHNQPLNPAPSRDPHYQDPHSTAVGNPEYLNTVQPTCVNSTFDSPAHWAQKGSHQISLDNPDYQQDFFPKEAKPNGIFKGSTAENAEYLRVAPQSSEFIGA
# T1 sequence (P00533 with tags, fused parts or gaps INS769ASV): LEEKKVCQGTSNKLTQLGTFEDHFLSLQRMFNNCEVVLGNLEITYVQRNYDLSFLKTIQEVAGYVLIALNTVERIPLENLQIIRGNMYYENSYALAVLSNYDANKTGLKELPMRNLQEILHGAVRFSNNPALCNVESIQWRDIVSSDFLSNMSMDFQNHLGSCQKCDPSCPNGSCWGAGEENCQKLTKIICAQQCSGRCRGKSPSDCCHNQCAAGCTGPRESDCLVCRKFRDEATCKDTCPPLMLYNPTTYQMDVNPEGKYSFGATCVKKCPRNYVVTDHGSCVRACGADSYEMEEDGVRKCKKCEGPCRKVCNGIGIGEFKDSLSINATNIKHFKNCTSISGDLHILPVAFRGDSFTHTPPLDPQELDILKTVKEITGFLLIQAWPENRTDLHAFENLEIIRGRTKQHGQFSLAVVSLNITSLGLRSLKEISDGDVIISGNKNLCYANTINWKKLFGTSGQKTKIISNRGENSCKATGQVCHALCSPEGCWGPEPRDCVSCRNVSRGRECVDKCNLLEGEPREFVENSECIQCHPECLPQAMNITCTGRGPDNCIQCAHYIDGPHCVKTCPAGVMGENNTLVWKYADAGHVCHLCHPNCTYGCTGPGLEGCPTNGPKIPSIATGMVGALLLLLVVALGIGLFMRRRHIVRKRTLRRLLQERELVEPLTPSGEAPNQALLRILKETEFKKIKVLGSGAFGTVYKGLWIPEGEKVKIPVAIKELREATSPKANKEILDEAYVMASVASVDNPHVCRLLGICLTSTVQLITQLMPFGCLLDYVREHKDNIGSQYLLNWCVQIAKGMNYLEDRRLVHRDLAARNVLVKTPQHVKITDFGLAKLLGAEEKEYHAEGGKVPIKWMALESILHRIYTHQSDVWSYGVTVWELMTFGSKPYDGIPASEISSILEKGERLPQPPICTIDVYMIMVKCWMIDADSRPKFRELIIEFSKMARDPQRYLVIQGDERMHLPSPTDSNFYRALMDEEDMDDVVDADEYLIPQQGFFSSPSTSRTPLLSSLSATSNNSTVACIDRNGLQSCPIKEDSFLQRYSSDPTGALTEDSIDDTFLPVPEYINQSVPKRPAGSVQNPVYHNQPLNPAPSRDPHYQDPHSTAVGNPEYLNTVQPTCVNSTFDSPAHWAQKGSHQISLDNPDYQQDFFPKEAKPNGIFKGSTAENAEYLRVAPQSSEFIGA
# T3 sequence (P00533 with tags, fused parts or gaps INS770SVD): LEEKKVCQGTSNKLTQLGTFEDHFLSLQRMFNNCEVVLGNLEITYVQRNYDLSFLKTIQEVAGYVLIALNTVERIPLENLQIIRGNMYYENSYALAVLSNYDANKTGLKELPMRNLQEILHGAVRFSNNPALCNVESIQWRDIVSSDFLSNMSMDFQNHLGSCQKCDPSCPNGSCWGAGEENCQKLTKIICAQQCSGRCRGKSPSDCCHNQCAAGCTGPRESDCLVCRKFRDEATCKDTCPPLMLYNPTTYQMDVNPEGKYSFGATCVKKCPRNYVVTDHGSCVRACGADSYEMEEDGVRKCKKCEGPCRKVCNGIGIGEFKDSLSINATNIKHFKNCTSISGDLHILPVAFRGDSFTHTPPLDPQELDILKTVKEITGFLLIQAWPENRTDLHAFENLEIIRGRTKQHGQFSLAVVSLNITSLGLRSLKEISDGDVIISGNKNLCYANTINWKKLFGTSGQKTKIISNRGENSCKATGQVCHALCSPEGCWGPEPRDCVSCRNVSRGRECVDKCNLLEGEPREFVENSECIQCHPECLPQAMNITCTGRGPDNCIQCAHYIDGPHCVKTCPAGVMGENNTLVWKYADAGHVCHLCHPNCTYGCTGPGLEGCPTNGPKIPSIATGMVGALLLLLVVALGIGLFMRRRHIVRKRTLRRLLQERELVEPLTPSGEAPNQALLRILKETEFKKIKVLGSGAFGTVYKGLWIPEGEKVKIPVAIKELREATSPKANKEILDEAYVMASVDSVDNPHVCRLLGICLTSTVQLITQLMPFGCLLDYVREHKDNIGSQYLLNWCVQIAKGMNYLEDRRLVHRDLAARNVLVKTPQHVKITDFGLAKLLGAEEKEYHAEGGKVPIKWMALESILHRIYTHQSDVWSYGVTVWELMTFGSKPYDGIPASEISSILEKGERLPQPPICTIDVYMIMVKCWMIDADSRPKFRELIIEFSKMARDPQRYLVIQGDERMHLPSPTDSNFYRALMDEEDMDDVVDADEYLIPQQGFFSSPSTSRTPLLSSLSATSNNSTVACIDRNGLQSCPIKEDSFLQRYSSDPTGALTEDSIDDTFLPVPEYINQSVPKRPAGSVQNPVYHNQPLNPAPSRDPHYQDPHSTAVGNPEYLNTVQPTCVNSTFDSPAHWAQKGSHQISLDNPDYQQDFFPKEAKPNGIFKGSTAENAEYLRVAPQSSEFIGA
Compound,IC50 [1] [nM],IC50 [2] [nM],IC50 [3] [nM],IC50 (EGFR WT (Ba/F3 cells)) [nM]
"COc1c(Cl)cccc1Nc1c(-c2ccncc2F)[nH]c2c1C(=O)NCC2CCF (stereo not shown) [Compound 473, 3-[(3-chloro-2-methoxyphenyl)amino]-7-(2-fluoroethyl)-2-(3-fluoropyridin-4-yl)-1H,5H,6H,7H-pyrrolo[3,2-c]pyridin-4-one]",100 to 1000,100 to 1000,100 to 1000,> 1000
COc1c(Cl)cccc1Nc1c(-c2ccncc2F)[nH]c2c1C(=O)NC[C@@H]2CC(N)=O [Compound 474],> 1000,> 1000,> 1000,> 1000
"COC(=O)N1CCC2(CC1)CNC(=O)c1c2[nH]c(-c2ccncc2F)c1Nc1cccc(Cl)c1OC [Compound 479, methyl 3′-[(3-chloro-2-methoxyphenyl)amino]-2′-(3-fluoropyridin-4-yl)-4′-oxo-5′,6′-dihydro-1′H-spiro[piperidine-4,7′-pyrrolo[3,2-c]pyridine]-1-carboxylate]",100 to 1000,100 to 1000,100 to 1000,> 1000
COc1c(Cl)cccc1Nc1c(-c2ccncc2F)[nH]c2c1C(=O)NC[C@H]2CC(=O)N(C)C [Compound 487],100 to 1000,100 to 1000,100 to 1000,> 1000
COc1c(Cl)cccc1Nc1c(-c2ccncc2F)[nH]c2c1C(=O)NC[C@H]2CC(N)=O [Compound 489],100 to 1000,100 to 1000,100 to 1000,> 1000
"COc1c(Cl)cccc1Nc1c(-c2ccncc2F)[nH]c2c1C(=O)NC[C@@H]2CC(C)(C)O [Compound 496, (7S)-3-[(3-chloro-2-methoxyphenyl)amino]-2-(3-fluoropyridin-4-yl)-7-(2-hydroxy-2-methylpropyl)-1H,5H,6H,7H-pyrrolo[3,2-c]pyridin-4-one]",100 to 1000,100 to 1000,100 to 1000,> 1000
"COc1ncc2nccc(-c3[nH]c4c(c3Nc3cccc(Cl)c3OC)C(=O)N[C@H](C(F)(F)F)C4)c2n1 [Compound 508, (6S)-3-[(3-chloro-2-methoxyphenyl)amino]-2-{2-methoxypyrido[3,2-d]pyrimidin-8-yl}-6-(trifluoromethyl)-1H,5H,6H,7H-pyrrolo[3,2-c]pyridin-4-one]",> 1000,100 to 1000,100 to 1000,> 1000
"COc1c(Cl)cccc1Nc1c(-c2ccncc2F)[nH]c2c1C(=O)NCC21COC1 [Compound 748, 3′-[(3-chloro-2-methoxyphenyl)amino]-2′-(3-fluoropyridin-4-yl)-5′,6′-dihydro-1′H-spiro[oxetane-3,7′-pyrrolo[3,2-c]pyridin]-4′-one]",100 to 1000,100 to 1000,100 to 1000,> 1000
"COc1c(Cl)cccc1Nc1c(-c2ccnc(N)n2)[nH]c2c1C(=O)NC(CO)C2 (stereo not shown) [Compound 751, 2-(2-aminopyrimidin-4-yl)-3-[(3-chloro-2-methoxyphenyl)amino]-6-(hydroxymethyl)-1H,5H,6H,7H-pyrrolo[3,2-c]pyridin-4-one]",100 to 1000,100 to 1000,100 to 1000,> 1000

# Continued, values first:
IC50 [1] [nM],IC50 [2] [nM],IC50 [3] [nM],IC50 (EGFR WT (Ba/F3 cells)) [nM],Compound
< 100,< 100,< 100,< 100,COc1ccc2nccc(-c3[nH]c4c(c3Nc3cccc(Cl)c3OC)C(=O)NC[C@@H]4C)c2n1 [310b]
100 to 1000,100 to 1000,< 100,> 1000,COCC[C@@H]1CNC(=O)c2c1[nH]c(-c1ccnc(C)n1)c2Nc1cccc(Cl)c1OC [463a]
100 to 1000,100 to 1000,100 to 1000,> 1000,COc1c(Cl)cccc1Nc1c(-c2ccncc2F)[nH]c2c1C(=O)NC[C@H]2CC1COC1 [468b]
100 to 1000,100 to 1000,100 to 1000,> 1000,"COc1c(F)cccc1Nc1c(-c2ccncc2F)[nH]c2c1C(=O)NC[C@@H]2C[C@@H]1CCO1 [Compound 422b, (7S)-3-[(3-fluoro-2-methoxyphenyl)amino]-2-(3-fluoropyridin-4-yl)-7-[(2R)-oxetan-2-ylmethyl]-1H,5H,6H,7H-pyrrolo[3,2-c]pyridin-4-one]"
100 to 1000,100 to 1000,100 to 1000,> 1000,COCC[C@H]1CNC(=O)c2c1[nH]c(-c1ccncn1)c2Nc1cccc(F)c1OC [Compound 447b]
< 100,100 to 1000,< 100,100 to 1000,"COCC[C@@H]1CNC(=O)c2c1[nH]c(-c1ccncc1F)c2Nc1cccc(F)c1OC(F)F [Compound 470, (7R)-3-{[2-(difluoromethoxy)-3-fluorophenyl]amino}-2-(3-fluoropyridin-4-yl)-7-(2-methoxyethyl)-1H,5H,6H,7H-pyrrolo[3,2-c]pyridin-4-one]"
100 to 1000,100 to 1000,100 to 1000,> 1000,"COCC[C@H]1CNC(=O)c2c1[nH]c(-c1ccncc1F)c2Nc1cccc(F)c1OC(F)F [Compound 471, (7S)-3-{[2-(difluoromethoxy)-3-fluorophenyl]amino}-2-(3-fluoropyridin-4-yl)-7-(2-methoxyethyl)-1H,5H,6H,7H-pyrrolo[3,2-c]pyridin-4-one]"
< 100,< 100,< 100,100 to 1000,"COc1ncc2nccc(-c3[nH]c4c(c3Nc3cccc(Cl)c3OC)C(=O)N[C@@H](C(F)(F)F)C4)c2n1 [Compound 507, (6R)-3-[(3-chloro-2-methoxyphenyl)amino]-2-{2-methoxypyrido[3,2-d]pyrimidin-8-yl}-6-(trifluoromethyl)-1H,5H,6H,7H-pyrrolo[3,2-c]pyridin-4-one]"
< 100,100 to 1000,< 100,100 to 1000,"COc1c(Cl)cccc1Nc1c(-c2ccnc(NCc3ccn(C)n3)n2)[nH]c2c1C(=O)NCC2 [Compound 709, 3-[(3-chloro-2-methoxyphenyl)amino]-2-(2-[[(1-methylpyrazol-3-yl)methyl]amino]pyrimidin-4-yl)-1H,5H,6H,7H-pyrrolo[3,2-c]pyridin-4-one]"
< 100,< 100,< 100,< 100,"COc1ccc2nccc(-c3[nH]c4c(c3Nc3cccc(Cl)c3OC)C(=O)NC[C@@H]4CCF)c2n1 [Compound 744, (S)-3-((3-chloro-2-methoxyphenyl)amino)-7-(2-fluoroethyl)-2-(6-methoxy-1,5-naphthyridin-4-yl)-1,5,6,7-tetrahydro-4H-pyrrolo[3,2-c]pyridin-4-one]"
< 100,< 100,< 100,< 100,"COc1ccc2nccc(-c3[nH]c4c(c3Nc3cccc(Cl)c3OC)C(=O)NC[C@H]4CCF)c2n1 [Compound 745, (R)-3-((3-chloro-2-methoxyphenyl)amino)-7-(2-fluoroethyl)-2-(6-methoxy-1,5-naphthyridin-4-yl)-1,5,6,7-tetrahydro-4H-pyrrolo[3,2-c]pyridin-4-one]"
< 100,< 100,< 100,< 100,"COc1ccc2nccc(-c3[nH]c4c(c3Nc3cccc(Cl)c3OC)C(=O)NCC43CCC3)c2n1 [Compound 760, 3′-((3-chloro-2-methoxyphenyl)amino)-2′-(6-methoxy-1,5-naphthyridin-4-yl)-5′,6′-dihydrospiro[cyclobutane-1,7′-pyrrolo[3,2-c]pyridin]-4′(1′H)-one]"
< 100,< 100,< 100,< 100,"COC[C@H]1CNC(=O)c2c1[nH]c(-c1ccnc3ccc(OC)nc13)c2Nc1cccc(Cl)c1OC [Compound 764, (7S)-3-[(3-chloro-2-methoxyphenyl)amino]-2-(6-methoxy-1,5-naphthyridin-4-yl)-7-(methoxymethyl)-1H,5H,6H,7H-pyrrolo[3,2-c]pyridin-4-one]"
